Patent US20230042612A1, “METHODS OF CONTROLLING OR PREVENTING INFESTATION OF PLANTS BY A PHYTOPATHOGENIC MICROORGANISM OF THE GENUS MACROPHOMINA SPP” (SYNGENTA CROP PROTECTION AG, priority 2019, published 2023)

Tested on: Macrophomina phaseolina
Assay: Strawberry pot trial in the greenhouse, soil drench at planting, efficacy against Macrophomina phaseolina
Format: in vivo
Conditions: 250 g AI/ha drench at planting, strawberry 'Sweet Ann'; for Pest severity (IS 0-5; 0 = no damage, 5 = severe damage): 6 replications
Experimental: A strawberry pot trial was carried out in the greenhouse Vero Beach, United States to evaluate the efficacy of different compounds against Macrophomina phaseolina.
The plants were planted in 4 L pots with Vero Beach Mix (50% potting media and 50% pasteurized sand). The plants were bare root strawberry of the variety ‘Sweet Ann’. The strawberry plants were partially planted, then were inoculated with 2 grams of the infested millet. The inoculum was grown on twice sterilized millet for 1-2 weeks. The isolate used was originally isolated from strawberry. After the inoculation the roots were completely covered. At the day of planting each plant was drench applied with 100 mL of compound solution. The application dose was calculated based on a plant spacing of 30.5 cm by 45.7 cm. The plants were grown in a greenhouse that averaged 32° C. in the day and 21° C. at night. Plants were watered daily. The disease severity was evaluated after 44 and 65 days after application using a […] index scale (5=severe damage, 0=no damage).

[1] = 65 days after application (second assessment)

What does the source list for `O=C(NCCc1ncc(C(F)(F)F)cc1Cl)c1ccccc1C(F)(F)F` [Fluopyram]?
% efficacy based on disease incidence (44 days after planting): 44.33%; Pest severity (IS 0-5; 0 = no damage, 5 = severe damage) (44 days after planting): 1.67,A; % efficacy based on disease incidence [1]: 1.60%; Pest severity (IS 0-5; 0 = no damage, 5 = severe damage) [1]: 4.92,A
